The source of these data is patent publication US20240050428A1 (Cullgen (Shanghai), Inc., priority 2020, published 2024).

One assay has as its system MV4;11 cells. Put plainly: Cell viability assay (CellTiter-Glo) in MV4;11 cells, alone or with gilteritinib. The conditions noted are these: Homo sapiens, MV4;11 cells, three days, CellTiter-Glo, read-out: MV4. The class given is cell-based. Background: ATP-based viability assays read luminescence as a measure of living cells.
In the next assay the test system is MOLM-13 cells. Description: Cell viability assay (CellTiter-Glo) in MOLM-13 cells, alone or with gilteritinib. The conditions noted are these: Homo sapiens, MOLM-13 cells, three days, CellTiter-Glo. The class given is cell-based.
Setting [1] is: MV4-11, 72 h, compound alone (without gilteritinib), 11 IC50.
Setting [2] is: MV4-11, 72 h, with gilteritinib 10 nM, 11 IC50 gilteritinib.
The mark [3] stands for this setting: MOLM-13, 72 h, compound alone (without gilteritinib), read-out: MOLM-13 IC50.
[4] abbreviates: MOLM-13, 72 h, with gilteritinib 20 nM, read-out: MOLM-13 IC50 gilteritinib.
Setting [5] is: 72 h, compound alone (without gilteritinib), 11 IC50.
Where [6] appears, read: 72 h, with gilteritinib 10 nM, 11 IC50 gilteritinib.
Where [7] appears, read: 72 h, compound alone (without gilteritinib), read-out: MOLM-13 IC50.
[8] abbreviates: 72 h, with gilteritinib 20 nM, read-out: MOLM-13 IC50 gilteritinib.

Like-named read-outs stand apart in the source and are kept apart here.

Take `CC(CCCNc1ccc2c(c1)C(=O)N(C1CCC(=O)NC1=O)C2=O)C(=O)N1CCC(n2cc(-c3cnc4ccccc4n3)cn2)CC1` (centres unmarked) [GS-138, 2-(2,6-Dioxopiperidin-3-yl)-5-((4-methyl-5-oxo-5-(4-(4-(quinoxalin-2-yl)-1H-pyrazol-1-yl)piperidin-1-yl)pentyl)amino)iaoindoline-1,3-dione]: the IC50 in the assay on MV4;11 cells (setting [1]), with MV4;11 cells (setting [2]), in the assay on MOLM-13 cells (setting [3]) and with MOLM-13 cells (setting [4]) was greater than 1 µM in each case.
Turning to `CC(C)(CCCNc1ccc2c(c1)C(=O)N(C1CCC(=O)NC1=O)C2=O)C(=O)N1CCC(n2cc(-c3cnc4ccccc4n3)cn2)CC1` (centres unmarked) [GS-139, 5-((4,4-Dimethyl-5-oxo-5-(4-(4-(quinoxalin-2-yl)-1H-pyrazol-1-yl)piperidin-1-yl)pentyl)amino)-2-(2,6-dioxopiperidin-3-yl)isoindoline-1,3-dione], the IC50 with MV4;11 cells (setting [1]) was 0.1 to 1 µM; with MV4;11 cells (setting [2]), 0.1 to 1 µM; with MOLM-13 cells (setting [3]), greater than 1 µM; with MOLM-13 cells (setting [4]), greater than 1 µM.
As for `O=C1CCC(N2Cc3cc(NCCCC4CC(n5cc(-c6cnc7ccccc7n6)cn5)C4)ccc3C2=O)C(=O)N1` (centres unmarked) [GS-140, 3-(1-Oxo-5-((3-(3-(4-(quinoxalin-2-yl)-1H-pyrazol-1-yl)cyclobutyl)propyl)amino)isoindolin-2-yl)piperidine-2,6-dione], the IC50 with MV4;11 cells (setting [1]) was 0.01 to 0.1 µM; with MV4;11 cells (setting [2]), 0.1 to 1 µM; with MOLM-13 cells (setting [3]), greater than 1 µM; with MOLM-13 cells (setting [4]), greater than 1 µM.
With `O=C1CCC(N2C(=O)c3ccc(NCCCC4(C(=O)N5CCC(n6cc(-c7cnc8ccccc8n7)cn6)CC5)CC4)cc3C2=O)C(=O)N1` (centres unmarked) [GS-141, 2-(2,6-Dioxopiperidin-3-yl)-5-((3-(1-(4-(4-(quinoxalin-2-yl)-1H-pyrazol-1-yl)piperidine-1-carbonyl)cyclopropyl)propyl)amino)isondoline-1,3-dione], the IC50 in the assay with MV4;11 cells (setting [1]), in the assay with MV4;11 cells (setting [2]), in the assay on MOLM-13 cells (setting [3]) and in the assay with MOLM-13 cells (setting [4]) was greater than 1 µM throughout.
`O=C1CCC(N2Cc3c(NC4CCCC(CCCCn5cc(-c6cnc7ccccc7n6)cn5)C4)cccc3C2=O)C(=O)N1` (centres unmarked) [GS-142, 3-(1-Oxo-4-((3-(4-(4-(quinoxalin-2-yl)-1H-pyrazol-1-yl)butyl)cyclohexyl)amino)isoindolin-2-yl)piperidine-2,6-dione]: the IC50 in the assay on MV4;11 cells (setting [1]), with MV4;11 cells (setting [2]), in the assay on MOLM-13 cells (setting [3]) and in the assay with MOLM-13 cells (setting [4]) was greater than 1 µM each time.
Consider `C[C@@H]1CC(n2cc(-c3cnc4ccccc4n3)cn2)C[C@H](C)N1C(=O)CCCCNc1ccc2c(c1)C(=O)N(C1CCC(=O)NC1=O)C2=O` (stereo partly drawn) [GS-143, 5-((5-((2R,6S)-2,6-dimethyl-4-(4-(quinoxalin-2-yl)-1H-pyrazol-1-yl)piperidin-1-yl)-5-oxopentyl)amino)-2-(2,6-dioxopiperidin-3-yl)isoindoline-1,3-dione], for which the IC50 with MV4;11 cells (setting [1]), with MV4;11 cells (setting [2]), with MOLM-13 cells (setting [3]) and with MOLM-13 cells (setting [4]) was greater than 1 µM throughout.
For `O=C1CCC(N2C(=O)c3ccc(NCC45CC(C(=O)N6CCC(n7cc(-c8cnc9ccccc9n8)cn7)CC6)(C4)C5)cc3C2=O)C(=O)N1` (centres unmarked) [GS-144, 2-(2,6-Dioxopiperidin-3-yl)-5-(((3-(4-(4-(quinoxalin-2-yl)-1H-pyrazol-1-yl)piperidine-1-carbonyl)bicyclo[1.1.1]pentan-1-yl)methyl)amino)isoindoline-1,3-dione], the IC50 in the assay with MV4;11 cells (setting [1]) was 0.1 to 1 µM; in the assay with MV4;11 cells (setting [2]), 0.01 to 0.1 µM; in the assay with MOLM-13 cells (setting [3]) it was greater than 1 µM; in the assay with MOLM-13 cells (setting [4]) it was 0.1 to 1 µM.
Take `O=C1CCC(N2C(=O)c3ccc(NCCCC(F)(F)C(=O)N4CCC(n5cc(-c6cnc7ccccc7n6)cn5)CC4)cc3C2=O)C(=O)N1` (centres unmarked) [GS-145, 5-((4,4-Difluoro-5-oxo-5-(4-(4-(quinoxalin-2-yl)-1H-pyrazol-1-yl)piperidin-1-yl)pentyl)amino)-2-(2,6-dioxopiperidin-3-yl)isoindoline-1,3-dione]: the IC50 in the assay with MV4;11 cells (setting [1]) is 0.1 to 1 µM; with MV4;11 cells (setting [2]), 0.01 to 0.1 µM; with MOLM-13 cells (setting [3]) it was 0.1 to 1 µM; in the assay with MOLM-13 cells (setting [4]), less than 0.01 µM.
As for `Cc1nn(CCCCCCNc2ccc3c(c2)C(=O)N(C2CCC(=O)NC2=O)C3=O)c(C)c1-c1cnccn1` (centres unmarked) [GS-146, 5-((6-(3,5-Dimethyl-4-(pyrazin-2-yl)-1H-pyrazol-1-yl)hexyl)amino)-2-(2,6-dioxopiperidin-3-yl)isoindoline-1,3-dione], the IC50 with MV4;11 cells (setting [1]) is greater than 1 µM; in the assay on MV4;11 cells (setting [2]), 0.01 to 0.1 µM; in the assay with MOLM-13 cells (setting [3]) it was 0.1 to 1 µM; in the assay with MOLM-13 cells (setting [4]), 0.01 to 0.1 µM.
`O=C1CCC(N2C(=O)c3ccc(NCCCCC(=O)N4CCC(c5ccccc5)CC4)cc3C2=O)C(=O)N1` (centres unmarked) [GS-147, 2-(2,6-Dioxopiperidin-3-yl)-5-((5-oxo-5-(4-phenylpiperidin-1-yl)pentyl)amino)isoindoline-1,3-dione]: the IC50 is greater than 1 µM with MV4;11 cells (setting [5]), 0.1 to 1 µM in the assay on MV4;11 cells (setting [6]), greater than 1 µM in the assay on MOLM-13 cells (setting [7]) and 0.01 to 0.1 µM with MOLM-13 cells (setting [8]).
Consider `O=C1CCC(N2C(=O)c3ccc(NCCCC(=O)N4CCC(c5ccccc5)CC4)cc3C2=O)C(=O)N1` (centres unmarked) [GS-148, 2-(2,6-Dioxopiperidin-3-yl)-5-((4-oxo-4-(4-phenylpiperidin-1-yl)butyl)amino)isoindoline-1,3-dione], for which the IC50 in the assay on MV4;11 cells (setting [5]) is greater than 1 µM; in the assay with MV4;11 cells (setting [6]), 0.1 to 1 µM; with MOLM-13 cells (setting [7]), 0.1 to 1 µM; in the assay with MOLM-13 cells (setting [8]), 0.01 to 0.1 µM.
Take `O=C1CCC(N2C(=O)c3ccc(NCCNC(=O)N4CCC(n5cc(-c6cnc7ccccc7n6)cn5)CC4)cc3C2=O)C(=O)N1` (centres unmarked) [GS-149, N-(2-((2-(2,6-dioxopiperidin-3-yl)-1,3-dioxoisoindolin-5-yl)amino)ethyl)-4-(4-(quinoxalin-2-yl)-1H-pyrazol-1-yl)piperidine-1-carboxamide]: the IC50 with MV4;11 cells (setting [1]) is greater than 1 µM; in the assay on MV4;11 cells (setting [2]) it was 0.1 to 1 µM; in the assay on MOLM-13 cells (setting [3]), greater than 1 µM; in the assay with MOLM-13 cells (setting [4]) it was 0.1 to 1 µM.
Consider `Cc1nn(CCCCCCNc2ccc3c(c2)C(=O)N(C2CCC(=O)NC2=O)C3=O)c(C)c1-c1ncccn1` (centres unmarked) [GS-150, 5-((6-(3,5-Dimethyl-4-(pyrimidin-2-yl)-1H-pyrazol-1-yl)hexyl)amino)-2-(2,6-dioxopiperidin-3-yl)isoindoline-1,3-dione], for which the IC50 in the assay on MV4;11 cells (setting [1]) is 0.1 to 1 µM; with MV4;11 cells (setting [2]) it was 0.01 to 0.1 µM; in the assay with MOLM-13 cells (setting [3]), 0.1 to 1 µM; in the assay with MOLM-13 cells (setting [4]), less than 0.01 µM.
For the compound `Cc1nn(CCCCCCNc2ccc3c(c2)C(=O)N(C2CCC(=O)NC2=O)C3=O)c(C)c1-c1ncc2ccccc2n1` (centres unmarked) [GS-151, 5-((6-(3,5-Dimethyl-4-(quinazolin-2-yl)-1H-pyrazol-1-yl)hexyl)amino)-2-(2,6-dioxopiperidin-3-yl)isoindoline-1,3-dione], the IC50 was 0.01 to 0.1 µM in the assay with MV4;11 cells (setting [1]), less than 0.01 µM in the assay with MV4;11 cells (setting [2]), 0.01 to 0.1 µM with MOLM-13 cells (setting [3]) and less than 0.01 µM in the assay on MOLM-13 cells (setting [4]).
On to `O=C1CCC(N2C(=O)c3ccc(NCCc4cccc(N5CCC(n6cc(-c7cnc8ccccc8n7)cn6)CC5)c4)cc3C2=O)C(=O)N1` (centres unmarked) [GS-152, 2-(2,6-Dioxopiperidin-3-yl)-5-((3-(4-(4-(quinoxalin-2-yl)-1H-pyrazol-1-yl)piperidin-1-yl)phenethyl)amino)isoindoline-1,3-dione], for which the IC50 in the assay on MV4;11 cells (setting [1]) fell in the range of 0.1 to 1 µM; in the assay with MV4;11 cells (setting [2]) it was 0.01 to 0.1 µM; with MOLM-13 cells (setting [3]), 0.1 to 1 µM; in the assay on MOLM-13 cells (setting [4]) it was 0.01 to 0.1 µM.
Take `O=C1CCC(N2C(=O)c3ccc(NCCCCC(=O)N4CCC(n5cc(-c6cnc7ccccc7n6)cn5)CC45CC5)cc3C2=O)C(=O)N1` (centres unmarked) [GS-153, 2-(2,6-Dioxopiperidin-3-yl)-5-((5-oxo-5-(7-(4-(quinoxalin-2-yl)-1H-pyrazol-1-yl)-4-azaspiro[2.5]octan-4-yl)pentyl)amino)isoindoline-1,3-dione]: the IC50 in the assay on MV4;11 cells (setting [1]) is 0.1 to 1 µM; with MV4;11 cells (setting [2]), 0.1 to 1 µM; in the assay with MOLM-13 cells (setting [3]) it was greater than 1 µM; in the assay with MOLM-13 cells (setting [4]), 0.01 to 0.1 µM.
With `O=C1CCC(N2Cc3c(NC4CCCC(CCCC(=O)N5CCC(n6cc(-c7cnc8ccccc8n7)cn6)CC5)C4)cccc3C2=O)C(=O)N1` (centres unmarked) [GS-154, 3-(1-Oxo-4-((3-(4-oxo-4-(4-(4-(quinoxalin-2-yl)-1H-pyrazol-1-yl)piperidin-1-yl)butyl)cyclohexyl)amino)isoindolin-2-yl)piperidine-2,6-dione], the IC50 in the assay with MV4;11 cells (setting [1]), with MV4;11 cells (setting [2]), in the assay with MOLM-13 cells (setting [3]) and with MOLM-13 cells (setting [4]) was greater than 1 µM throughout.
In the case of `O=C1CCC(N2C(=O)c3ccc(NCC4CCC(Cn5cc(-c6cnc7ccccc7n6)cn5)CC4)cc3C2=O)C(=O)N1` (centres unmarked) [GS-155, 2-(2,6-Dioxopiperidin-3-yl)-5-(((4-((4-(quinoxalin-2-yl)-1H-pyrazol-1-yl)methyl)cyclohexyl)methyl)amino)isoindoline-1,3-dione], the IC50 in the assay on MV4;11 cells (setting [1]) was 0.1 to 1 µM; in the assay on MV4;11 cells (setting [2]), greater than 1 µM; in the assay on MOLM-13 cells (setting [3]), greater than 1 µM; in the assay on MOLM-13 cells (setting [4]), 0.1 to 1 µM.
In the case of `Cc1nn(C2CC(CCCNc3ccc4c(c3)C(=O)N(C3CCC(=O)NC3=O)C4=O)C2)c(C)c1-c1cnc2cccc(F)c2n1` (centres unmarked) [GS-156, 2-(2,6-Dioxopiperidin-3-yl)-5-((3-(3-(4-(8-fluoroquinoxalin-2-yl)-3,5-dimethyl-1H-pyrazol-1-yl)cyclobutyl)propyl)amino)isoindoline-1,3-dione], the IC50 with MV4;11 cells (setting [1]) was greater than 1 µM; in the assay on MV4;11 cells (setting [2]) it was 0.1 to 1 µM; in the assay on MOLM-13 cells (setting [3]), greater than 1 µM; in the assay on MOLM-13 cells (setting [4]), less than 0.01 µM.
As for `O=C1CCC(N2Cc3c(NC4CCCC(CCCn5cc(-c6cnc7ccccc7n6)cn5)C4)cccc3C2=O)C(=O)N1` (centres unmarked) [GS-157], the IC50 with MV4;11 cells (setting [1]), in the assay with MV4;11 cells (setting [2]), in the assay on MOLM-13 cells (setting [3]) and in the assay with MOLM-13 cells (setting [4]) was greater than 1 µM each time.
